Reference: US9211310B2, “Use of a Chinese medicine composition in preparing medicaments for treating secondary prevention of myocardial infarction” (TASLY PHARMACEUTICAL GROUP CO., LTD, priority 2010, dated 2015)

Tested on: patients after acute myocardial infarction
Assay: Life quality, Seattle Angina Questionnaire (SAQ), same clinical trial
Type: in vivo, human
Conditions: FAS
Text: 3508 patients who were in accordance with the diagnostic standards of AMI for 28 days to 2 years and differentiated as Qi deficiency and blood stagnation syndrome by TCM were studied. 0.5 g Chinese medicine composition prepared by the method of EXAMPLE 1 (Coded as QSYQ) was administrated half an hour after meal, 3 times per day.
There were 19 questions in the Seattle angina questionnaire (SAQ), including 5 parts: physical limitation (PL), anginal stability (AS), anginal frequency (AF), treatment satisfaction (TS) and disease perception (DP). After being given necessary explanation by doctors, the questions were answered independently by patients.
They included the overall survival time, angina pectoris score, TCM symptom score and life quality score, where angina pectoris score, TCM symptom score and life quality score were evaluated at randomization, in 1st, 3rd, 6th, 9th, 12th month after treatment and 18th month after follow-up.
All evaluation results of SAQ were described during the period of observation, and Wilcoxon rank sum test was used for inter-group comparison.
The evaluation results in the SAQ were depicted in different observations, and inter-group comparison was tested by Wilcoxon Rank-sum test.

Question: For `CC(=O)Oc1ccccc1C(=O)O` [Control group, aspirine], which “SAQ Question 1-8: Mildly limited, patients (%)” value (6 months after treatment) is on record?
Answer: (25.30%)

Question: And the “SAQ Question 1-8: Moderately limited, patients (%)” value (6 months after treatment)?
Answer: (16.42%)

Question: What about the “SAQ Question 1-8: Not limited, patients (%)” value (6 months after treatment) of the same compound?
Answer: (10.62%)

Question: And the “SAQ Question 1-8: Other reasons, patients (%)” value (6 months after treatment)?
Answer: (3.77%)

Question: What about the “SAQ Question 1-8: Severely limited, patients (%)” value (6 months after treatment) of the same compound?
Answer: (19.38%)

Question: And the “SAQ Question 1-8: Slightly limited, patients (%)” value (6 months after treatment)?
Answer: (24.49%)

Question: What about the “8th question: Mostly satisfied, patients (%)” value (6 months after treatment, second line of the scale) of the same compound?
Answer: (2.24%)

Question: What about the “8th question: Dissatisfied, patients (%)” value (9 months after treatment) of the same compound?
Answer: (0.34%)

Question: And the “8th question: Highly satisfied, patients (%)” value (9 months after treatment)?
Answer: (22.36%)

Question: What about the “8th question: Mostly dissatisfied, patients (%)” value (9 months after treatment) of the same compound?
Answer: (1.89%)

Question: And the “8th question: Mostly satisfied, patients (%)” value (9 months after treatment)?
Answer: (58.31%)

Question: What about the “8th question: Partly satisfied, patients (%)” value (9 months after treatment) of the same compound?
Answer: (17.09%)

Question: And the “9th question: Few, patients (%)” value (9 months after treatment)?
Answer: (37.79%)

Question: And the “9th question: Mild, patients (%)” value (9 months after treatment)?
Answer: (33.08%)

Question: What about the “9th question: Moderate, patients (%)” value (9 months after treatment) of the same compound?
Answer: (8.77%)

Question: And the “9th question: Severe, patients (%)” value (9 months after treatment)?
Answer: (0.97%)

Question: What about the “9th question: Uneffective, patients (%)” value (9 months after treatment) of the same compound?
Answer: (19.38%)

Question: What about the “10th question: Dissatisfied, patients (%)” value (9 months after treatment) of the same compound?
Answer: (19.55%)

Question: And the “10th question: Highly satisfied, patients (%)” value (9 months after treatment)?
Answer: (5.73%)

Question: What about the “10th question: Mostly dissatisfied, patients (%)” value (9 months after treatment) of the same compound?
Answer: (20.47%)

Question: What about the “10th question: Mostly satisfied, patients (%)” value (9 months after treatment) of the same compound?
Answer: (28.84%)

Question: What about the “10th question: Partly satisfied, patients (%)” value (9 months after treatment) of the same compound?
Answer: (25.40%)

Question: What about the “11th question: Continuously worried, patients (%)” value (9 months after treatment) of the same compound?
Answer: (3.44%)

Question: What about the “11th question: No worried, patients (%)” value (9 months after treatment) of the same compound?
Answer: (6.02%)

Question: And the “11th question: Occasionally worried, patients (%)” value (9 months after treatment)?
Answer: (41.80%)

Question: What about the “11th question: Often worried, patients (%)” value (9 months after treatment) of the same compound?
Answer: (12.33%)

Question: What about the “11th question: Seldom worried, patients (%)” value (9 months after treatment) of the same compound?
Answer: (36.41%)

Question: And the “SAQ 4th question, 1-2 times per week: % of patients” value (9 months after treatment)?
Answer: (15.60%)

Question: And the “SAQ 4th question, 1-2 times per week: number of patients” value (9 months after treatment)?
Answer: 272

Question: What about the “SAQ 4th question, 1-3 times per week: % of patients” value (9 months after treatment) of the same compound?
Answer: (4.30%)

Question: What about the “SAQ 4th question, 1-3 times per week: number of patients” value (9 months after treatment) of the same compound?
Answer: 75

Question: And the “SAQ 4th question, <1 time per week: % of patients” value (9 months after treatment)?
Answer: (15.14%)

Question: And the “SAQ 4th question, <1 time per week: number of patients” value (9 months after treatment)?
Answer: 264

Question: What about the “SAQ 4th question, Not used: % of patients” value (9 months after treatment) of the same compound?
Answer: (59.69%)

Question: And the “SAQ 4th question, Not used: number of patients” value (9 months after treatment)?
Answer: 1041

Question: And the “SAQ 4th question, ≧3 times per week: % of patients” value (9 months after treatment)?
Answer: (5.16%)

Question: And the “SAQ 4th question, ≧3 times per week: number of patients” value (9 months after treatment)?
Answer: 90

Question: And the “SAQ 4th question, ≧4 times per day: % of patients” value (9 months after treatment)?
Answer: (0.11%)

Question: What about the “SAQ 4th question, ≧4 times per day: number of patients” value (9 months after treatment) of the same compound?
Answer: 2

Question: And the “SAQ 5th question, 1-2 times per week: % of patients” value (9 months after treatment)?
Answer: (28.67%)

Question: What about the “SAQ 5th question, 1-2 times per week: number of patients” value (9 months after treatment) of the same compound?
Answer: 500

Question: And the “SAQ 5th question, 1-3 times per day: % of patients” value (9 months after treatment)?
Answer: (7.97%)

Question: What about the “SAQ 5th question, 1-3 times per day: number of patients” value (9 months after treatment) of the same compound?
Answer: 139

Question: And the “SAQ 5th question, <1 time per week: % of patients” value (9 months after treatment)?
Answer: (28.56%)

Question: What about the “SAQ 5th question, <1 time per week: number of patients” value (9 months after treatment) of the same compound?
Answer: 498

Question: What about the “SAQ 5th question, No onset: % of patients” value (9 months after treatment) of the same compound?
Answer: (4.47%)

Question: What about the “SAQ 5th question, No onset: number of patients” value (9 months after treatment) of the same compound?
Answer: 78

Question: What about the “SAQ 5th question, ≧3 times per week: % of patients” value (9 months after treatment) of the same compound?
Answer: (29.42%)

Question: What about the “SAQ 5th question, ≧3 times per week: number of patients” value (9 months after treatment) of the same compound?
Answer: 513

Question: What about the “SAQ 5th question, ≧4 times per day: % of patients” value (9 months after treatment) of the same compound?
Answer: (0.92%)

Question: What about the “SAQ 5th question, ≧4 times per day: number of patients” value (9 months after treatment) of the same compound?
Answer: 16

Question: And the “SAQ 6th question, Dissatisfied: % of patients” value (9 months after treatment)?
Answer: (0.23%)

Question: What about the “SAQ 6th question, Dissatisfied: number of patients” value (9 months after treatment) of the same compound?
Answer: 4

Question: What about the “SAQ 6th question, Highly satisfied: % of patients” value (9 months after treatment) of the same compound?
Answer: (23.62%)

Question: And the “SAQ 6th question, Highly satisfied: number of patients” value (9 months after treatment)?
Answer: 412

Question: And the “SAQ 6th question, Mostly dissatisfied: % of patients” value (9 months after treatment)?
Answer: (1.95%)

Question: And the “SAQ 6th question, Mostly dissatisfied: number of patients” value (9 months after treatment)?
Answer: 34

Question: What about the “SAQ 6th question, Mostly satisfied: % of patients” value (9 months after treatment) of the same compound?
Answer: (58.77%)

Question: And the “SAQ 6th question, Mostly satisfied: number of patients” value (9 months after treatment)?
Answer: 1025

Question: And the “SAQ 6th question, Partly satisfied: % of patients” value (9 months after treatment)?
Answer: (15.42%)

Question: What about the “SAQ 6th question, Partly satisfied: number of patients” value (9 months after treatment) of the same compound?
Answer: 269

Question: And the “SAQ 7th question, Dissatisfied: % of patients” value (9 months after treatment)?
Answer: (0.11%)

Question: And the “SAQ 7th question, Dissatisfied: number of patients” value (9 months after treatment)?
Answer: 2

Question: And the “SAQ 7th question, Highly satisfied: % of patients” value (9 months after treatment)?
Answer: (27.21%)

Question: And the “SAQ 7th question, Highly satisfied: number of patients” value (9 months after treatment)?
Answer: 474

Question: What about the “SAQ 7th question, Most dissatisfied: % of patients” value (9 months after treatment) of the same compound?
Answer: (1.09%)

Question: What about the “SAQ 7th question, Most dissatisfied: number of patients” value (9 months after treatment) of the same compound?
Answer: 19

Question: And the “SAQ 7th question, Mostly satisfied: % of patients” value (9 months after treatment)?
Answer: (59.53%)

Question: And the “SAQ 7th question, Mostly satisfied: number of patients” value (9 months after treatment)?
Answer: 1037

Question: What about the “SAQ 7th question, Partly satisfied: % of patients” value (9 months after treatment) of the same compound?
Answer: (12.06%)

Question: And the “SAQ 7th question, Partly satisfied: number of patients” value (9 months after treatment)?
Answer: 210

Question: What about the “SAQ Question 1-1 Mildly limited, number of patients” value (9 months after treatment) of the same compound?
Answer: 25

Question: What about the “SAQ Question 1-1 Mildly limited, percent of patients” value (9 months after treatment) of the same compound?
Answer: (1.43%)

Question: And the “SAQ Question 1-1 Moderately limited, number of patients” value (9 months after treatment)?
Answer: 5

Question: And the “SAQ Question 1-1 Moderately limited, percent of patients” value (9 months after treatment)?
Answer: (0.29%)

Question: And the “SAQ Question 1-1 Not limited, number of patients” value (9 months after treatment)?
Answer: 1643

Question: And the “SAQ Question 1-1 Not limited, percent of patients” value (9 months after treatment)?
Answer: (94.21%)

Question: What about the “SAQ Question 1-1 Other reasons, number of patients” value (9 months after treatment) of the same compound?
Answer: 3
